Measurements reported in patent US10208019B2, “GLP-1 receptor agonists and uses thereof” (Pfizer Inc., priority 2016, dated 2019).
Counter-ions that a name gives are not always drawn. Like-named read-outs stand apart in the source and are kept apart here.

Legend:
human GLP-1R [1] = molecular target: human GLP-1R (Homo sapiens (Human), UniProt P43220, L260F); assay: CHO GLP-1R Clone C6—Assay 2: HTRF cAMP cell-based functional agonist assay (low GLP-1R density); conditions: for EC50: CHO GLP-1R Clone C6, cAMP HTRF, geometric mean; for Emax / Assay 2 Emax (%): CHO GLP-1R Clone C6, relative to saturating concentration of full agonist GLP-1 (1 μM), arithmetic mean; for Emax: read-out: Assay 2 Emax (%)
human GLP-1R (Homo sapiens (Human), UniProt P43220, L260F), sequence (P43220 24-463 L260F): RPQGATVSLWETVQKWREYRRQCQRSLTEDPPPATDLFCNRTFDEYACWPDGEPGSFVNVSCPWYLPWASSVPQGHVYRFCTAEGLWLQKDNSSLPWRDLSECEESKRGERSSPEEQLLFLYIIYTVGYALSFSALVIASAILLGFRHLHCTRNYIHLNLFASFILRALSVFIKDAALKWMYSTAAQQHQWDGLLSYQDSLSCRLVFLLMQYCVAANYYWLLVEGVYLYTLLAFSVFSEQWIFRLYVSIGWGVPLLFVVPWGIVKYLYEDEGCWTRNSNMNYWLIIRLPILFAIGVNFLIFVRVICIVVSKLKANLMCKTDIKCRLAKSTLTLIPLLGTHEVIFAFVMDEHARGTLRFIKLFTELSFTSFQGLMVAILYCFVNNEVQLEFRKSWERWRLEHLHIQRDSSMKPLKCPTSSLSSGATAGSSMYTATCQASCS

human GLP-1R [2] = molecular target: human GLP-1R (Homo sapiens, UniProt P43220, G168S); assay: CHO GLP-1R Clone H6—Assay 1: HTRF cAMP cell-based functional agonist assay (high GLP-1R density); conditions: for EC50: CHO GLP-1R Clone H6, cAMP HTRF, geometric mean; for Emax: read-out: Assay 1 Emax (%), CHO GLP-1R Clone H6
human GLP-1R (Homo sapiens, UniProt P43220, G168S), sequence (P43220 24-463 G168S limits assumed): as the sequence (P43220 24-463 L260F) above, with G145S, F237L counted along it

[3] = relative to saturating concentration of full agonist GLP-1 (1 μM), arithmetic mean

C[C@H]1CN(c2cccc(OCc3ccc(C#N)cc3F)n2)CCN1Cc1nc2ccc(C(=O)O)cc2n1C[C@H]1CCOC1 [Example 10A-59]
EC50 (human GLP-1R [1]): 84 nM | Emax (human GLP-1R [1]): 83% | EC50 (human GLP-1R [2]; read-out: Assay 1 EC50): 4.7 nM | Emax (human GLP-1R [2]; [3]): 71%

O=C(O)c1ccc2nc(CN3CCC(c4cccc(OCc5ccc(Cl)cc5F)n4)CC3)n(CCC(F)(F)F)c2c1 [Example 11A-73, 2-[(4-{6-[(4-chloro-2-fluorobenzyl)oxy]pyridin-2-yl}piperidin-1-yl)methyl]-1-(3,3,3-trifluoropropyl)-1H-benzimidazole-6-carboxylic acid]
EC50 (human GLP-1R [1]): 5300 nM | Emax (human GLP-1R [1]): 80% | EC50 (human GLP-1R [2]; read-out: Assay 1 EC50): 150 nM | Emax (human GLP-1R [2]; [3]): 68%

CO[C@H]1C[C@@H](Cn2c(CN3CCC(c4cccc(OCc5ccc(Cl)cc5F)n4)CC3)nc3ccc(C(=O)O)cc32)C1 [Example 1A-28, 2-[(4-{6-[(4-chloro-2-fluorobenzyl)oxy]pyridin-2-yl}piperidin-1-yl)methyl]-1-[(cis-3-methoxycyclobutyl)methyl]-1H-benzimidazole-6-carboxylic acid]
EC50 (human GLP-1R [1]): 7700 nM | Emax (human GLP-1R [1]): 100% | EC50 (human GLP-1R [2]; Assay 1 EC50 (nM)): 300 nM | Emax (human GLP-1R [2]; [3]): 92%

N#Cc1ccc(COc2cccc(C3CCN(Cc4nc5ccc(C(=O)O)nc5n4Cc4cnco4)CC3)n2)c(F)c1 [Example 10A-24]
EC50 (human GLP-1R [1]): 130 nM | Emax (human GLP-1R [1]): 94% | EC50 (human GLP-1R [2]; read-out: Assay 1 EC50): 5.7 nM | Emax (human GLP-1R [2]; [3]): 78%

Cn1c(CN2CCC(c3cccc(OCc4ccc(Cl)cc4F)n3)CC2)nc2ccc(C(=O)O)cc21 [Example 1A-01, 2-((4-(6-((4-Chloro-2-fluorobenzyl)oxy)pyridin-2-yl)piperidin-1-yl)methyl)-1-methyl-1H-benzo[d]imidazole-6-carboxylic acid hydrochloride]
EC50 (human GLP-1R [1]): 910 nM | Emax (human GLP-1R [1]): 94% | EC50 (human GLP-1R [2]; read-out: Assay 1 EC50): 81 nM | Emax (human GLP-1R [2]; [3]): 77%

COCCn1c(CN2CCC(c3cccc(OCc4ccc(Cl)cc4F)n3)CC2)nc2ncc(C(=O)O)cc21 [Example 2A-02, 2-((4-(6-((4-Chloro-2-fluorobenzyl)oxy)pyridin-2-yl)piperidin-1-yl)methyl)-1-(2-methoxyethyl)-1H-imidazo[4,5-b]pyridine-6-carboxylic acid hydrochloride]
EC50 (human GLP-1R [1]): 110 nM | Emax (human GLP-1R [1]): 89% | EC50 (human GLP-1R [2]; read-out: Assay 1 EC50): 7.9 nM | Emax (human GLP-1R [2]; [3]): 95%

N#Cc1ccc(COc2cccc(N3CCN(Cc4nc5ccc(C(=O)O)cc5n4Cc4cnco4)CC3)n2)c(F)c1 [Example 10A-61, 2-[(4-{6-[(4-cyano-2-fluorobenzyl)oxy]pyridin-2-yl}piperazin-1-yl)methyl]-1-(1,3-oxazol-5-ylmethyl)-1H-benzimidazole-6-carboxylic acid]
EC50 (human GLP-1R [1]): 35 nM | Emax (human GLP-1R [1]): 89% | EC50 (human GLP-1R [2]; read-out: Assay 1 EC50): 1.5 nM | Emax (human GLP-1R [2]; [3]): 74%

COCCn1c(CN2CCC(c3cccc(OCc4ccc(Cl)cc4F)n3)CC2C)nc2ccc(C(=O)O)cc21 (single isomer, unassigned) [Example 13A-04, cis 2-{[4-{6-[(4-Chloro-2-fluorobenzyl)oxy]pyridin-2-yl}-2-methylpiperidin-1-yl]methyl}-1-(2-methoxyethyl)-1H-benzimidazole-6-carboxylic acid]
EC50 (human GLP-1R [1]): 1400 nM | Assay 2 Emax (%) (human GLP-1R [1]): 83% | EC50 (human GLP-1R [2]; Assay 1 EC50 (nM)): 46 nM | Assay 1 Emax (%) (human GLP-1R [2]; CHO GLP-1R Clone H6, relative to saturating concentration of full agonist GLP-1 (1 μM), arithmetic mean): 66%

Cn1nncc1Cn1c(CN2CCC(c3cccc(OCc4ccc(Cl)cc4F)n3)CC2)nc2ccc(C(=O)O)cc21 [Example 11A-72, 2-[(4-{6-[(4-chloro-2-fluorobenzyl)oxy]pyridin-2-yl}piperidin-1-yl)methyl]-1-[(1-methyl-1H-1,2,3-triazol-5-yl]methyl]-1H-benzimidazole-6-carboxylic acid]
EC50 (human GLP-1R [1]): 41 nM | Emax (human GLP-1R [1]): 77% | EC50 (human GLP-1R [2]; read-out: Assay 1 EC50): 5 nM | Emax (human GLP-1R [2]; [3]): 82%

C[C@H]1CN(c2cccc(OCc3ccc(C#N)cc3F)n2)CCN1Cc1nc2ccc(C(=O)O)cc2n1Cc1cncn1C [Example 10A-25]
EC50 (human GLP-1R [1]): 41 nM | Emax (human GLP-1R [1]): 99% | EC50 (human GLP-1R [2]; read-out: Assay 1 EC50): 1.7 nM | Emax (human GLP-1R [2]; [3]): 82%

O=C(O)c1ccc2nc(CN3CCC(c4cccc(OCc5ccc(Cl)cc5F)n4)CC3)n(Cc3ncco3)c2c1 [Example 10A-42, 2-[(4-{6-[(4-chloro-2-fluorobenzyl)oxy]pyridin-2-yl}piperidin-1-yl)methyl]-1-(1,3-oxazol-2-ylmethyl)-1H-benzimidazole-6-carboxylic acid]
EC50 (human GLP-1R [1]): 29 nM | Emax (human GLP-1R [1]): 74% | EC50 (human GLP-1R [2]; read-out: Assay 1 EC50): 2.7 nM | Emax (human GLP-1R [2]; [3]): 73%

CC1(Cn2c(CN3CCC(c4cccc(OCc5ccc(Cl)cc5F)n4)CC3)nc3ccc(C(=O)O)cc32)CCOC1 (stereo not drawn) [Example 11A-14, 2-[(4-{6-[(4-chloro-2-fluorobenzyl)oxy]pyridin-2-yl}piperidin-1-yl)methyl]-1-[(3-methyltetrahydrofuran-3-yl)methyl]-1H-benzimidazole-6-carboxylic acid]
EC50 (human GLP-1R [1]): 230 nM | Emax (human GLP-1R [1]): 77% | EC50 (human GLP-1R [2]; read-out: Assay 1 EC50): 8.1 nM | Emax (human GLP-1R [2]; [3]): 64%

Cn1cncc1Cn1c(CN2CCN(c3cccc(OCc4ccc(C#N)cc4F)n3)CC2)nc2ccc(C(=O)O)cc21 [Example 10A-37, 2-[(4-{6-[(4-cyano-2-fluorobenzyl)oxy]pyridin-2-yl}piperazin-1-yl)methyl]-1-[(1-methyl-1H-imidazol-5-yl)methyl]-1H-benzimidazole-6-carboxylic acid]
EC50 (human GLP-1R [1]): 23 nM | Emax (human GLP-1R [1]): 110% | EC50 (human GLP-1R [2]; read-out: Assay 1 EC50): 3.4 nM | Emax (human GLP-1R [2]; [3]): 86%

O=C(O)c1ccc2nc(CN3CCC(c4cccc(OCc5ccc(F)cc5F)n4)CC3)n(Cc3cnco3)c2c1 [Example 10A-44, 2-[(4-{6-[(2,4-difluorobenzyl)oxy]pyridin-2-yl}piperidin-1-yl)methyl]-1-(1,3-oxazol-5-ylmethyl)-1H-benzimidazole-6-carboxylic acid]
EC50 (human GLP-1R [1]): 99 nM | Emax (human GLP-1R [1]): 81% | EC50 (human GLP-1R [2]; read-out: Assay 1 EC50): 6 nM | Emax (human GLP-1R [2]; [3]): 73%

Cn1ncnc1Cn1c(CN2CCC(c3cccc(OCc4ccc(Cl)cc4F)n3)CC2)nc2ccc(C(=O)O)cc21 [Example 11A-33, 2-[(4-{6-[(4-chloro-2-fluorobenzyl)oxy]pyridin-2-yl}piperidin-1-yl)methyl]-1-[(1-methyl-1H-1,2,4-triazol-5yl)methyl]-1H-benzimidazole-6-carboxylic acid]
EC50 (human GLP-1R [1]): 1400 nM | Emax (human GLP-1R [1]): 94% | EC50 (human GLP-1R [2]; read-out: Assay 1 EC50): 96 nM | Emax (human GLP-1R [2]; [3]): 86%

C[C@H]1CN(c2cccc(OCc3ccc(C#N)cc3F)n2)CCN1Cc1nc2ccc(C(=O)O)cc2n1Cc1cnco1 [Example 10A-17]
EC50 (human GLP-1R [1]): 59 nM | Emax (human GLP-1R [1]): 85% | EC50 (human GLP-1R [2]; read-out: Assay 1 EC50): 1.8 nM | Emax (human GLP-1R [2]; [3]): 77%

C[C@H]1CN(c2cccc(OCc3ccc(C#N)cc3F)n2)CCN1Cc1nc2ccc(C(=O)O)cc2n1CC1CCCO1 (single isomer, unassigned; diastereomer 2) [Example 14A-12]
EC50 (human GLP-1R [1]): 20 nM | EC50 (human GLP-1R [2]; read-out: Assay 1 EC50): 1.4 nM

C[C@H]1CN(c2ccc(F)c(OCc3ccc(F)cc3F)n2)CCN1Cc1nc2ccc(C(=O)O)cc2n1C[C@@H]1CCO1 [Example 10A-56, 2-{[(2S)-4-{6-[(2,4-difluorobenzyl)oxy]-5-fluoropyridin-2-yl}-2-methylpiperazin-1-yl]methyl}-1-[(2S)-oxetan-2-ylmethyl]-1H-benzimidazole-6-carboxylic acid]
EC50 (human GLP-1R [1]): 16 nM | Emax (human GLP-1R [1]): 86% | EC50 (human GLP-1R [2]; read-out: Assay 1 EC50): 0.5 nM | Emax (human GLP-1R [2]; [3]): 78%

O=C(O)c1ccc2nc(CN3CCC(c4cccc(OCc5ccc(Cl)cc5F)n4)CC3)n(CCn3cccn3)c2c1 [Example 11A-28, 2-[(4-{6-[(4-chloro-2-fluorobenzyl)oxy]pyridin-2-yl}piperidin-1-yl)methyl]-1-[2-(1H-pyrazol-1-yl)ethyl]-1H-benzimidazole-6-carboxylic acid]
EC50 (human GLP-1R [1]): 1200 nM | Emax (human GLP-1R [1]): 82% | EC50 (human GLP-1R [2]; read-out: Assay 1 EC50): 54 nM | Emax (human GLP-1R [2]; [3]): 77%

CCn1cncc1Cn1c(CN2CCC(c3cccc(OCc4ccc(C#N)cc4F)n3)CC2)nc2ccc(C(=O)O)nc21 [Example 10A-75]
EC50 (human GLP-1R [1]): 13 nM | Emax (human GLP-1R [1]): 91% | EC50 (human GLP-1R [2]; read-out: Assay 1 EC50): 0.95 nM | Emax (human GLP-1R [2]; [3]): 95%

C[C@H]1CN(c2cccc(OCc3ccc(F)cc3F)n2)CCN1Cc1nc2ccc(C(=O)O)cc2n1C[C@@H]1CCO1 [Example 10A-58, 2-{[(2S)-4-{6-[(2,4-difluorobenzyl)oxy]pyridin-2-yl}-2-methylpiperazin-1-yl]methyl}-1-[(2S)-oxetan-2-ylmethyl]-1H-benzimidazole-6-carboxylic acid]
EC50 (human GLP-1R [1]): 8.5 nM | Emax (human GLP-1R [1]): 78% | EC50 (human GLP-1R [2]; read-out: Assay 1 EC50): 0.52 nM | Emax (human GLP-1R [2]; [3]): 70%

N#Cc1ccc(COc2cccc(C3CCN(Cc4nc5ccc(C(=O)O)cc5n4CC4CCCO4)CC3)n2)cc1 (single isomer, unassigned; enantiomer 2) [Example 14A-02, 2-[(4-{6-[(4-cyanobenzyl)oxyhoyridin-2-yl}piperidin-1-yl)methyl]-1-(tetrahydrofuran-2-ylmethyl)-1H-benzimidazole-6-carboxylic acid,enantiomer 2]
EC50 (human GLP-1R [1]): 1500 nM | Assay 2 Emax (%) (human GLP-1R [1]): 69% | EC50 (human GLP-1R [2]; read-out: Assay 1 EC50): 94 nM

C[C@H]1CN(c2cccc(OCc3ccc(Cl)cc3F)n2)CCN1Cc1nc2ccc(C(=O)O)cc2n1C[C@@H]1CCO1 [Example 1A-19, 2-{[(2S)-4-{6-[(4-chloro-2-fluorobenzyl)oxy]pyridin-2-yl}-2-methylpiperazin-1-yl]methyl}-1-[(2S)-oxetan-2-ylmethyl]-1H-benzimidazole-6-carboxylic acid]
EC50 (human GLP-1R [1]): 3.2 nM | Emax (human GLP-1R [1]): 84% | EC50 (human GLP-1R [2]; read-out: Assay 1 EC50): 0.28 nM | Emax (human GLP-1R [2]; [3]): 84%

O=C(O)c1ccc2nc(CN3CCC(c4cccc(OCc5ccc(Cl)cc5F)n4)CC3)n(Cc3ccno3)c2c1 [Example 10A-64, 2-[(4-{6-[(4-chloro-2-fluorobenzyl)oxy]pyridin-2-yl}piperidin-1-yl)methyl]-1-(1,2-oxazol-5-ylmethyl)-1H-benzimidazole-6-carboxylic acid]
EC50 (human GLP-1R [1]): 32 nM | Emax (human GLP-1R [1]): 79% | EC50 (human GLP-1R [2]; read-out: Assay 1 EC50): 2 nM | Emax (human GLP-1R [2]; [3]): 82%
